In data set [1] the test system is Puccinia triticina; synonym: Puccinia recondita f. sp. tritici. Kind of data set: Fungicidal activity: wheat brown rust (PUCCRT), wheat seedlings. The settings on record: 100 ppm, wheat. Format: in vivo. In outline: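 Wheat (Yuma) seedlings at first-leaf stage, inoculated with Puccinia triticina spores before or after treatment, held overnight in dark dew room at 22° C, 100% RH, then greenhouse at 24° C. Acetone solutions diluted with nine volumes water containing 110 ppm Triton X-100, sprayed to run-off. Percent disease control derived from severity (0–100%) relative to untreated plants.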

The subject of data set [2] is Mycosphaerella graminicola; anamorph: Septoria tritici. Kind of data set: Fungicidal activity: leaf blotch of wheat (SEPTTR), wheat seedlings. In kind it is in vivo. Conditions: Zymoseptoria tritici, 100 ppm, wheat. In outline: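 Compounds in acetone were diluted with nine volumes of water containing 110 ppm Triton X-100 and sprayed to run-off on Yuma wheat seedlings at first-leaf stage. Septoria tritici spores were inoculated before or after treatment, followed by dew chambers at 100% RH and 20 °C, then greenhouse at 20 °C. Severity (0–100%) was scored once untreated plants were fully diseased; control was calculated relative to untreated plants.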

Data set [3] concerns Puccinia triticina; synonym: Puccinia recondita f. sp. tritici. Put plainly: Fungicide mobility (dropline mobility test): wheat brown rust (PUCCRT). In kind it is in vivo. The settings on record: 1 ug/leaf. The method, then:
Evaluation of Fungicide Mobility: Wheat Brown Rust (Puccinia triticina; Synonym: Puccinia recondita f. sp. tritici; Bayer Code PUCCRT) “Yuma” wheat seedlings were used in the test. One mg of compound was dissolved in 9 μl of EC blank (emulsifiable concentrate) and 500 μl of acetone. Acetone was then evaporated overnight by leaving the vial open in a fume hood. Two milliliters of water containing 110 ppm Triton X-100 was added to each vial to prepare application solutions. A 2 μl drop of formulated material was applied to a marked line on the adaxial surface 5 cm from the leaf tip of the primary leaves. The primary leaves were kept in a horizontal position. Each treatment had 6 replicates. Plants were inoculated with PUCCRT 1-day after (1DPM) or 3-day prior to (3DCM) compound applications. When rust was fully expressed on primary leaves on control plants, the zone of treated leaves that was disease-free in the acropetal direction was measured with a ruler and converted to percent of the distance from marked line to leaf tip.

Where [4] appears, read: 24 h, 1 Day Protectant, read-out: Disease Control PUCCRT 1DP.
Where [5] appears, read: 72 h, 3 Day Curative, read-out: Disease Control PUCCRT 3DC.
The mark [6] stands for this setting: 24 h, 1 Day Protectant, read-out: Disease Control SEPTTR 1DP.
[7] abbreviates: 72 h, 3 Day Curative, read-out: Disease Control SEPTTR 3DC.

The values that follow come from patent US9144239B2, “Macrocyclic picolinamides as fungicides” (DOW AGROSCIENCES LLC, priority 2012, dated 2015).

One may read the melting point as the temperature, or range, at which the solid turns liquid.

Like-named read-outs stand apart in the source and are kept apart here.

`C=C(C)CO[C@@H]1[C@@H](OCC(=C)C)COC[C@H](NC(=O)OCc2ccccc2)C(=O)O[C@H]1CC` [Compound 88, benzyl ((3S,7S,8S,9S)-9-ethyl-7,8-bis((2-methylallyl)oxy)-2-oxo-1,5-dioxonan-3-yl)carbamate]: the melting point fell in the range of 108 to 110 °C.

Turning to `CC(C)CO[C@H]1COC[C@H](N)C(=O)O[C@@H](C)[C@@H]1Oc1cccc(Cl)c1.Cl`, the melting point is 168 to 169 °C.

Consider `CCCCO[C@H]1COC[C@H](NC(=O)OC(C)(C)C)C(=O)O[C@@H](C)[C@@H]1OC(=O)C(C)C` [Compound 113, (3S,6S,7S,8S)-8-butoxy-3-((tert-butoxycarbonyl)amino)-6-methyl-4-oxo-1,5-dioxonan-7-yl isobutyrate], for which the melting point fell in the range of 69 to 71 °C.

In turn, `C=C(C)CO[C@H]1[C@H](C)OC[C@H](NC(=O)OCc2ccccc2)C(=O)OC[C@@H]1OCC(=C)C` [Compound 127] yielded a melting point of 79 to 81 °C.

The compound `CCCCO[C@H]1COC[C@H](NC(=O)c2nccc(OC)c2O)C(=O)O[C@@H](C)[C@@H]1OCC(C)C` [Compound 48, N-((3S,7S,8S,9S)-7-butoxy-8-isobutoxy-9-methyl-2-oxo-1,5-dioxonan-3-yl)-3-hydroxy-4-methoxypicolinamide] came in with a melting point of 104 to 106 °C. The pest or weed control at 100 ppm in data set [1] (setting [4]) was in the range of 80 to 100%. Also, the pest or weed control at 100 ppm in data set [1] (setting [5]) lay within 80 to 100%. Also, in data set [2] (setting [6]), the pest or weed control at 100 ppm lay in the range of 80 to 100%. Further, the pest or weed control at 100 ppm in data set [2] (setting [7]) lay in the range of 80 to 100%.

Regarding `C=C(C)CO[C@H]1[C@H](C)OC(=O)[C@@H](NC(=O)OCc2ccccc2)COC[C@@H]1OCC(=C)C` [Compound 126, benzyl (3S,7S,8S,9S)-9-methyl-7,8-bis(2-methylallyloxy)-2-oxo-1,5-dioxonan-3-ylcarbamate], the melting point lay in the range of 90 to 91 °C.

On to `CCCCO[C@H]1COC[C@H](NC(=O)c2nccc(OC)c2O)C(=O)O[C@@H](C)[C@@H]1OCCC` [Compound 44, N-((3S,7S,8S,9S)-7-butoxy-9-methyl-2-oxo-8-propoxy-1,5-dioxonan-3-yl)-3-hydroxy-4-methoxypicolinamide], for which the melting point lay within 110 to 112 °C. The pest or weed control at 100 ppm in data set [1] (setting [4]) was 80 to 100%. The pest or weed control at 100 ppm in data set [1] (setting [5]) lay in the range of 80 to 100%. In addition, the pest or weed control at 100 ppm in data set [2] (setting [6]) lay within 80 to 100%. Moreover, the pest or weed control at 100 ppm in data set [2] (setting [7]) lay within 80 to 100%.

`CCCCO[C@H]1COC[C@H](NC(=O)c2nccc(OC)c2O)C(=O)O[C@@H](C)[C@@H]1OC` [Compound 36, N-((3S,7S,8S,9S)-7-butoxy-8-methoxy-9-methyl-2-oxo-1,5-dioxonan-3-yl)-3-hydroxy-4-methoxypicolinamide] had a melting point of 118 to 120 °C. The pest or weed control at 100 ppm in data set [1] (setting [4]) was 80 to 100%. Moreover, the pest or weed control at 100 ppm in data set [1] (setting [5]) lay in the range of 80 to 100%. Besides, in data set [2] (setting [6]), the pest or weed control at 100 ppm lay in the range of 0 to 80%. In addition, in data set [2] (setting [7]), the pest or weed control at 100 ppm is 0 to 80%.

For `CC[C@@H]1OC(=O)[C@@H](NC(=O)c2nccc(OC)c2O)COC[C@H](OCC(C)C)[C@H]1OCC(C)C` [Compound 21, N-((3S,7S,8S,9S)-9-ethyl-7,8-diisobutoxy-2-oxo-1,5-dioxonan-3-yl)-3-hydroxy-4-methoxypicolinamide], the melting point is 119 to 121 °C. The pest or weed control at 100 ppm in data set [1] (setting [4]) is 80 to 100%. For the same compound, the pest or weed control at 100 ppm in data set [1] (setting [5]) is 80 to 100%. Besides, the pest or weed control at 100 ppm in data set [2] (setting [6]) was in the range of 80 to 100%. Besides, in data set [2] (setting [7]), the pest or weed control at 100 ppm was 0 to 80%.

For `C[C@@H]1OC(=O)[C@@H](N)COC[C@H](Oc2ccccc2)[C@H]1Oc1ccccc1.Cl`, the melting point is 227 to 229 °C.

Consider `Cc1ccc(O[C@H]2[C@H](C)OC(=O)[C@@H](N)COC[C@@H]2Oc2ccc(C)cc2)cc1.Cl`, for which the melting point lay within 213 to 216 °C.

In the case of `Cc1cc(C)cc(O[C@H]2[C@H](C)OC(=O)[C@@H](N)COC[C@@H]2Oc2cc(C)cc(C)c2)c1.Cl`, the melting point amounted to 212 °C.

Regarding `C=C(C)CO[C@H]1COC[C@H](NC(=O)OCc2ccccc2)C(=O)OC[C@@H]1OCC(=C)C` [Compound 186], the melting point was 66 to 68 °C.

`COc1ccc(O[C@H]2COC[C@H](N)C(=O)O[C@@H](C)[C@@H]2OC(=O)C(C)C)cc1.Cl` came in with a melting point of 197 to 198 °C.

`CC(C)CO[C@H]1[C@H](C)OC(=O)[C@@H](N(C(=O)OC(C)(C)C)C(=O)OC(C)(C)C)COC[C@@H]1Oc1ccc(F)cc1` [Compound 246] showed a melting point of 108 °C.

As to `C[C@@H]1OC(=O)[C@@H](N)COC[C@H](Oc2ccccc2)[C@H]1OC1CCCC1.Cl`, the melting point was 217 to 219 °C.

`C[C@@H]1OC(=O)[C@@H](N(C(=O)OC(C)(C)C)C(=O)OC(C)(C)C)COC[C@H](O)[C@H]1Oc1ccccc1` [Compound 249] showed a melting point of 110 to 112 °C.

`COc1ccc(O[C@H]2[C@H](C)OC(=O)[C@@H](N)COC[C@@H]2OC(=O)C(C)C)cc1.Cl` gave a melting point of 207 to 208 °C.

As for `C[C@@H]1OC(=O)[C@@H](N)COC[C@H](OCC2CC2)[C@H]1OCC1CC1.Cl`, the melting point lay in the range of 181 to 185 °C.

As to `COc1ccnc(C(=O)N[C@H]2COC[C@H](OCCC(C)C)[C@@H](OCCC(C)C)[C@H](C)OC2=O)c1O` [Compound 210, N-((3S,7S,8S,9S)-7,8-bis(isopentyloxy)-9-methyl-2-oxo-1,5-dioxonan-3-yl)-3-hydroxy-4-methoxypicolinamide], the melting point was in the range of 61 to 70 °C.

`CC(C)CO[C@H]1[C@H](C)OC(=O)[C@@H](N)COC[C@@H]1OCC(C)C` [Compound 160, (3S,7S,8S,9S)-3-amino-7,8-diisobutoxy-9-methyl-1,5-dioxonan-2-one] came in with a melting point of 144 to 146 °C.

The compound `CC(C)CO[C@H]1[C@H](C)OC(=O)[C@@H](N)COC[C@@H]1Oc1ccc(F)cc1.Cl` came in with a melting point of 197 to 200 °C.

For the compound `CCCCO[C@H]1[C@H](C)OC(=O)[C@@H](NC(=O)OC(C)(C)C)COC[C@@H]1OCc1ccccc1` [Compound 99], the melting point was in the range of 51 to 54 °C.

`CCCCO[C@H]1COC[C@H](N)C(=O)O[C@@H](C)[C@@H]1OCc1ccccc1.Cl` displayed a melting point of 174 to 177 °C.

`C[C@@H]1OC(=O)[C@@H](NC(=O)OC(C)(C)C)COC[C@H](OCc2ccccc2)[C@H]1OCc1ccccc1` [Compound 93, tert-butyl ((3S,7S,8S,9S)-7,8-bis(benzyloxy)-9-methyl-2-oxo-1,5-dioxonan-3-yl)carbamate] gave a melting point of 69 to 71 °C.

With `COc1ccnc(C(=O)N[C@H]2COC[C@H](OCC(C)C)[C@@H](OCC(C)C)[C@H](C)OC2=O)c1OC(C)=O` [Compound 238], the pest or weed control at 100 ppm in data set [1] (setting [4]), in data set [1] (setting [5]), in data set [2] (setting [6]) and in data set [2] (setting [7]) was 80 to 100% in each case. Further, the pest or weed control at 1 µg/leaf was 80 to 100% in data set [3] (24 h, 1 Day Protectant Mobility, read-out: Dropline Mobility Test PUCCRT 1DPM) and 80 to 100% in data set [3] (72 h, 3 Day Curative Mobility, read-out: Dropline Mobility Test PUCCRT 3DCM).

In the case of `CCCO[C@H]1[C@H](C)OC(=O)[C@@H](N)COC[C@@H]1Oc1ccccc1.Cl`, the melting point fell in the range of 217 to 219 °C.
